Reference: US10501449B2 (priority 2018, dated 2019)

Experiments:
[1] = target: hERG channels (Homo sapiens (Human), UniProt Q12809); test: hERG Manual Patch Clamp Assay; assay type: cell-based; details: HEK 293 cells stably expressing hERG channels; for inhibition at 1 µM: human, pH 7.4, 1 uM, read-out: hERG EP % Inh @ 1 uM
Method: hERG electrophysiology assay: The experimental compounds were assessed for hERG activity on HEK 293 cells stably expressing hERG channels using patch clamp technique. Coverslips plated with hERG expressing cells were placed in the experimental chamber and were perfused with a solution composed of (in mM): 140 NaCl, 4 KCl, 1.8 CaCl2, 1 MgCl2, 10 Glucose, 10 HEPES (pH 7.4, NaOH) at room temperature. Borosilicate patch pipettes had tip resistances of 2-4 Mohms when filled with an internal solution containing: 130 KCl, 1 MgCl2, 1 CaCl2, 10 EGTA, 10 HEPES, 5 ATP-K2 (pH 7.2, KOH). The cells were clamped at −80 mV in whole cell configuration using an Axopatch 200B (Axon instruments, Union City, Calif.) patch clamp amplifier controlled by pClamp (Axon instruments) software. Upon formation of a gigaseal, the following voltage protocol was repeatedly (0.05 Hz) applied to record tail currents: depolarization step from −80 mV to +20 mV for 2 seconds followed by a hyperpolarization step to −65 mV (3 seconds) to elicit tail currents. Compounds were applied after stabilization of tail current. First, tail currents were recorded in presence of extracellular solution alone (control) and subsequently, in extracellular solution containing increasing compound concentrations. Each compound concentration was applied for 2-5 minutes. The percentage inhibition at each concentration was calculated as reduction in peak tail current with respect to the peak tail current recorded in the presence of control solution. Data analysis was performed in a custom made template. The percent inhibitions at different concentrations were plotted to obtain a concentration response curve, which was subsequently fitted with a four parameter equation to calculate hERG IC50 value.

[2] = target: hROMK (human Kir1.1) (Homo sapiens (Human), UniProt P48048); test: cell-based; details: CHO T-Rex hROMK stable cell line; thallium flux; 10-point concentration response curve; read-out: Human ROMK Th Flux IC50
Sequence of hROMK (human Kir1.1) (P48048 whole entry): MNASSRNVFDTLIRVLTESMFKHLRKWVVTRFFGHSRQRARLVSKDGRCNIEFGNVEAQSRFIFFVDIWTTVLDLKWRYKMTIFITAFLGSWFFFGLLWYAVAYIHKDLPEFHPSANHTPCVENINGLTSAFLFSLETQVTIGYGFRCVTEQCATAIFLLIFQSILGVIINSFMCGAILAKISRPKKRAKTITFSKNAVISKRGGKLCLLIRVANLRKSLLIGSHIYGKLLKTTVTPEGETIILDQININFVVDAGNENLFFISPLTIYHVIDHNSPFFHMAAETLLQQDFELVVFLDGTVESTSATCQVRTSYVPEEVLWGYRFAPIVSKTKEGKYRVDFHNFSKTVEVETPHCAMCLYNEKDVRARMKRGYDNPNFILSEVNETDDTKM

Sequence of hERG channels (Q12809 whole entry): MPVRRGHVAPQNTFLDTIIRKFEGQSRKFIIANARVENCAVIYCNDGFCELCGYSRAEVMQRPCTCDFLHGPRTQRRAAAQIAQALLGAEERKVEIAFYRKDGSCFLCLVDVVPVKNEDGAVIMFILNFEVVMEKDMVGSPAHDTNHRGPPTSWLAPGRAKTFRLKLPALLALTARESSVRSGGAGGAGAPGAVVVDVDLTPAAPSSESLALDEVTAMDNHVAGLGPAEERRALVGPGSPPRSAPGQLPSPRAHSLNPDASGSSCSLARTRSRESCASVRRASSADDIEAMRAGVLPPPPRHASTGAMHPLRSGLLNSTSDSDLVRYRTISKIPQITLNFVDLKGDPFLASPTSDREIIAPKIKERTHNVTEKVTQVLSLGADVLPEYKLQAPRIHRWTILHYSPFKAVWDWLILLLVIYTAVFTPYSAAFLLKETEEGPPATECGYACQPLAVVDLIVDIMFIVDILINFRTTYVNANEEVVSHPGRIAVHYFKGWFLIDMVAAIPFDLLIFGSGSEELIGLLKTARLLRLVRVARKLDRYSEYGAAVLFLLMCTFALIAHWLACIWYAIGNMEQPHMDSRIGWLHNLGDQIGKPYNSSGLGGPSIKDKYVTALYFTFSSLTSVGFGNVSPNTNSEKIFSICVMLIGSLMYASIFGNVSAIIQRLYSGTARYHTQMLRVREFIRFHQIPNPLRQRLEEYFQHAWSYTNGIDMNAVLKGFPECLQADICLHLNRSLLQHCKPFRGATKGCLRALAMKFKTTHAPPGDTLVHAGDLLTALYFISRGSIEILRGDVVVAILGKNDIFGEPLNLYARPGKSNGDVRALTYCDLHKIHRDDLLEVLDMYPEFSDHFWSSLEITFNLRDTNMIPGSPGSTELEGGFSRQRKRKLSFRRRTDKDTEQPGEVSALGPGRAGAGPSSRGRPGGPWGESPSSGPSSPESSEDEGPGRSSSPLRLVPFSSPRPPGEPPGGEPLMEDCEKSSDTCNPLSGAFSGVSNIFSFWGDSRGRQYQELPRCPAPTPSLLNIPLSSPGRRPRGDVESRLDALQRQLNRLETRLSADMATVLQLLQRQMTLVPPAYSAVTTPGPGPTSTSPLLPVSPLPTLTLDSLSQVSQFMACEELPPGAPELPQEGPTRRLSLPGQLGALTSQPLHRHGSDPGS

For `Cc1cc(-n2cc(CN3CC(CO)NC(c4ccc5c(c4C)COC5=O)C3)nn2)ncc1C#N` (single isomer, unassigned) [Example 88-III, 6-(4-((3-(hydroxymethyl)-5-(4-methyl-1-oxo-1,3-dihydroisobenzofur-an-5-yl)piperazin-1-yl)methyl)-1H-1,2,3-triazol-1-yl)-4-methylnicotinonitrile], the inhibition at 1 µM [1] was 8.3% and the IC50 [2] was 36 nM.
Compound `COc1cc(-n2cc(CN3CC(CO)NC(c4ccc5c(c4C)COC5=O)C3)cn2)ncc1C#N` (single isomer, unassigned) [Example 89-III] has an inhibition at 1 µM [1] of 14%.
`Cc1cc(-n2cc(CN3CCC(C)(O)C(c4ccc5c(c4C)COC5=O)C3)cn2)ncc1C#N` (single isomer, unassigned) [Example 114-I, 6-(4-((4-hydroxy-4-methyl-3-(4-methyl-1-oxo-1,3-dihydroisobenzofuran-5-yl)piperidin-1-yl)methyl)-1H-pyrazol-1-yl)-4-methylnicotinonitrile] gave an inhibition at 1 µM [1] of 4.2% and an IC50 [2] of 32 nM.
`Cc1cc(-n2cc(CN3CC(c4ccc5c(c4C)COC5=O)NCC3CO)cn2)ncc1C#N` (single isomer, unassigned) [Example 123-I, 6-(4-((2-(hydroxymethyl)-5-(4-methyl-1-oxo-1,3-dihydroisobenzofuran-5-yl)piperazin-1-yl)methyl)-1H-pyrazol-1-yl)-4-methylnicotinonitrile] showed an inhibition at 1 µM [1] of 7.2% and an IC50 [2] of 74 nM.
With `COc1cc(N2CCC(CN3CCN[C@H](c4ccc5c(c4C)COC5=O)C3)C2)ncc1C#N` (single isomer, unassigned) [Example 154-I] the inhibition at 1 µM [1] was 43%.
For `COc1cc(N2CCC(CN3CCN[C@H](c4ccc5c(c4C)COC5=O)C3)C2)ncc1C#N` (single isomer, unassigned) [Example 155-I], the “hERG EP % Inh @ 1 uM” value ([1]; 1 uM) was 26% and the IC50 [2] was 11 nM.
Work on `Cc1cc(N2CCC(CN3CCN[C@H](c4ccc5c(c4C)COC5=O)C3)C2)ncc1C#N` (single isomer, unassigned) [Example 156-I] yielded an inhibition at 1 µM [1] of 51% and an IC50 [2] of 14 nM.
For `Cc1cc(N2CC(CN3CCN[C@H](c4ccc5c(c4C)COC5=O)C3)CC2=O)ncc1C#N` (single isomer, unassigned) [Example 158-I], the inhibition at 1 µM [1] was 20% and the IC50 [2] was 36 nM.
In the case of `COc1cc(N2CC(CN3C[C@@H](c4ccc5c(c4C)COC5=O)N[C@@H](C)C3)CC2=O)ncc1C#N` (single isomer, unassigned) [Example 170-I], the inhibition at 1 µM [1] is reported as 26% and the IC50 [2] is reported as 39 nM.
`Cc1cc(-n2cc(CN3CCCC(c4ccc5c(c4C)COC5=O)C3)cn2)ncc1C#N` (single isomer, unassigned) [Example 197-I, 4-methyl-6-(4-((3-(4-methyl-1-oxo-1,3-dihydroisobenzofuran-5-yl)piperidin-1-yl)methyl)-1H-pyraozl-1-yl)nicotinonitrile] showed an inhibition at 1 µM [1] of 75% and an IC50 [2] of 15 nM.
Compound `Cc1cc(-n2cc(CN3CC(O)CC(c4ccc5c(c4C)COC5=O)C3)cn2)ncc1C#N` (single isomer, unassigned) [Example 199-IV, 6-(4-((3-hydroxy-5-(4-methyl-1-oxo-1,3-dihydroisobenzofuran-5-yl)piperidin-1-yl)methyl)-1H-pyrazol-1-yl)-4-methylnicotinonitrile] has an inhibition at 1 µM [1] of 22% and an IC50 [2] of 16 nM.
With `Cc1cc(-n2cc(CN3CC(c4ccc5c(c4C)COC5=O)OC(C)(C)C3)cn2)ncc1C#N` (single isomer, unassigned) [Example 256-II, 6-(4-((2,2-dimethyl-6-(4-methyl-1-oxo-1,3-dihydroisobenzofuran-5-yl)morpholino)methyl)-1H-pyrazol-1-yl)-4-methylnicotinonitrile] the inhibition at 1 µM [1] was 13%.
`Cc1cc(-n2cc(CN3CC(=O)N[C@H](c4ccc5c(c4C)COC5=O)C3)cn2)ncc1C#N` [Example 15-I, (R)-4-methyl-6-(4-((3-(4-methyl-1-oxo-1,3-dihydroisobenzofuran-5-yl)-5-oxopiperazin-1-yl)methyl)-1H-pyrazol-1-yl)nicotinonitrile] was tested, and the inhibition at 1 µM [1] was 5.8%.
For `Cc1c([C@@H]2CN(Cc3cnn(-c4ccc(C#N)nc4)c3)CCO2)ccc2c1COC2=O` [Example 48-I, (R)-5-(4-((2-(4-methyl-1-oxo-1,3-dihydroiso-benzofuran-5-yl)morpho-lino)methyl)-1H-pyrazol-1-yl)picolinonitrile], the inhibition at 1 µM [1] was 78%.
In the case of `COc1cc(-n2cc(CN3CCO[C@H](c4ccc5c(c4C)COC5=O)C3)cn2)ccc1C#N` [Example 49-I, (R)-2-methoxy-4-(4-((2-(4-methyl-1-oxo-1,3-dihydroisobenzofuran-5-yl)morpholino)methyl)-1H-pyrazol-1-yl) benzonitrile], the inhibition at 1 µM [1] is reported as 27%.
For `Cc1cc(-n2cnc(CN3C[C@@H](c4ccc5c(c4C)COC5=O)N[C@@H](C)C3)c2)ncc1C#N` [Example 98-I, 4-methyl-6-(4-(((3S,5R)-3-methyl-5-(4-methyl-1-oxo-1,3-dihydroisobenzofur-an-5-yl)piperazin-1-yl)methyl)-1H-imidazol-1-yl)nicotinonitrile], the inhibition at 1 µM [1] was 9.3%.
Work on `COc1cc(-n2ncc(CN3CC[C@@H](O)[C@H](c4ccc5c(c4C)COC5=O)C3)n2)ncc1C#N` [Example 111-I, 6-(4-(((3R,4R)-4-hydroxy-3-(4-methyl-1-oxo-1,3-dihydroisobenzofur-an-5-yl)piperidin-1-yl)methyl)-2H-1,2,3-triazol-2-yl)-4-methoxynicotinonit-rile] yielded an inhibition at 1 µM [1] of 5.1%.
Compound `Cc1cc(-n2cc(CN3CCNC(c4ccc5c(c4C)COC5=O)C3C)cn2)ncc1C#N` (stereo not drawn) [Example 115-I, 4-methyl-6-(4-((2-methyl-3-(4-methyl-1-oxo-1,3-dihydroisobenzofuran-5-yl)piperazin-1-yl)methyl)-1H-pyrazol-1-yl)nicotinonitrile] has an inhibition at 1 µM [1] of 45%.
`Cc1cn(-c2ccc(CN3CCN[C@H](c4ccc5c(c4C)COC5=O)C3)nn2)cn1` [Example 153-I, (R)-4-methyl-5-(4-((6-(4-methyl-1H-imidazol-1-yl)pyridazin-3-yl)methyl)piperazin-2-yl)isobenzofuran-1(3H)-one] gave an inhibition at 1 µM [1] of 10%.
`Cc1cc(-n2nc(C)c(CN3CCN[C@H](c4ccc5c(c4C)COC5=O)C3)n2)ncc1C#N` [Example 169-I, (R)-4-methyl-6-(4-methyl-5-((3-(4-methyl-1-oxo-1,3-dihydroisobenzofuran-5-yl)piperazin-1-yl)methyl)-2H-1,2,3-triazol-2-yl)nicotinonitrile] gave an inhibition at 1 µM [1] of 12%.
With `Cc1c([C@@H]2CN(Cc3cnn(-c4cc(C(F)(F)F)c(C#N)cn4)c3)C[C@H](C)N2)ccc2c1COC2=O` [Example 196-I, 6-(4-(((3S,5R)-3-methyl-5-(4-methyl-1-oxo-1,3-dihydroisobenzofuran-5-yl)piperazin-1-yl)methyl)-1H-pyraozl-1-yl)-4-(trifluoromethyl)nicotinonitrile] the inhibition at 1 µM [1] was 18%.
Work on `Cc1c([C@@H]2CN(Cc3cnc(-n4cnc(C(F)(F)F)c4)nc3)CCN2)ccc2c1COC2=O` [Example 236-I, (R)-4-methyl-5-(4-((2-(4-(triflouromethyl)-1H-imidazol-1-yl)pyrimidin-5-yl)methyl)piperazin-2-yl)isobenzofuran-1(3H)-one] yielded an inhibition at 1 µM [1] of 20%.
Work on `COc1cc(N2CC(CN3C[C@@H](c4ccc5c(c4C)COC5=O)N[C@@H](C)C3)CC2=O)ccn1` (stereo partly drawn) [Example 254-I, 1-(2-methoxypyridin-4-yl)-4-(((3S,5R)-3-methyl-5-(4-methyl-1-oxo-1,3-dihydroisobenzofuran-5-yl)piperazin-1-yl)methyl)pyrrolidin-2-one] yielded an IC50 [2] of 1600 nM.
With `CNC(=O)c1nn(-c2cc(OC)c(C#N)cn2)cc1CN1CCN[C@H](c2ccc3c(c2C)COC3=O)C1` [Example 260-I, (R)-1-(5-cyano-4-methoxypyridin-2-yl)-N-methyl-4-((3-(4-methyl-1-oxo-1,3-dihydroisobenzofuran-5-yl)piperazin-1-yl)methyl)-1H-pyraozl-3-carboxamide] the IC50 [2] was 430 nM.
Compound `COc1cc(-n2cc(CN3CCN[C@H](c4ccc5c(c4C)COC5=O)C3)c(C(N)=O)n2)ncc1C#N` [Example 262-I, (R)-1-(5-cyano-4-methoxypyridin-2-yl)-4-((3-(4-methyl-1-oxo-1,3-dihydroisobenzofuran-5-yl)piperazin-1-yl)methyl)-1H-pyrazole-3-carboxamide] has an IC50 [2] of 120 nM.
`[2H]C([2H])([2H])Oc1cc(-n2cc(CN3CCN[C@H](c4ccc5c(c4C)COC5=O)C3)nn2)ncc1C#N` [Example 263-I, (R)-4-(methoxy-d3)-6-(4-((3-(4-methyl-1-oxo-1,3-dihydroisobenzofuran-5-yl)piperazin-1-yl)methyl)-1H-1,2,3-triazol-1-yl)nicotinonitrile] gave an inhibition at 1 µM [1] of 10%.
With `Cc1noc(-c2ccc(CN3CCN[C@H](c4ccc5c(c4C)COC5=O)C3)cn2)n1` [Example 264-I, (R)-4-methyl-5-(4-((6-(3-methyl-1,2,4-oxadiazol-5-yl)pyridin-3-yl)methyl)piperazin-2-yl)isobenzofuran-1(3H)-one] the IC50 [2] was 580 nM.
`Cc1c([C@@H]2CN(Cc3cnn(-c4ccn(C(F)F)c(=O)c4)n3)C[C@H](C)N2)ccc2c1COC2=O` [Example 270-I, 1-(difluoromethyl)-4-(4-(((3S,5R)-3-methyl-5-(4-methyl-1-oxo-1,3-dihydroisobenzofuran-5-yl)piperazin-1-yl)methyl)-2H-1,2,3-triazol-2-yl)pyridin-2(1H)-one] showed an IC50 [2] of 580 nM.
For `Cc1c([C@@H]2CN(Cc3cn(-c4ccnc(C(F)F)n4)cn3)C[C@H](C)N2)ccc2c1COC2=O` [Example 271-I, 5-((2R,6S)-4-((1-(2-(difluoromethyl)pyrimidin-4-yl)-1H-imidazol-4-yl)methyl)-6-methylpiperazin-2-yl)-4-methylisobenzofuran-1(3H)-one], the IC50 [2] was 100 nM.
Compound `Cc1c([C@@H]2CN(Cc3cn(-c4ccnc(C(F)F)c4)c(=O)n3C)C[C@H](C)N2)ccc2c1COC2=O` [Example 276-I, 1-(2-(difluoromethyl)pyridin-4-yl)-3-methyl-4-(((3S,5R)-3-methyl-5-(4-methyl-1-oxo-1,3-dihydroisobenzofuran-5-yl)piperazin-1-yl)methyl)-1,3-dihydro-2H-imidazol-2-one] has an inhibition at 1 µM [1] of 5.4%.
